B1: IFNγ: cytokine interferonγ; human IFNγ used on human tumor cell lines (protein, UniProt P01579 24-161, looked up)
Interferon gamma: QDPYVKEAENLKKYFNAGHSDVADNGTLFLGILKNWKEESDRKIMQSQIVSFYFKLFKNFKDDQSIQKSVETIKEDMNVKFFNSNKKKRDDFEKLTNYSVTDLNVQRKAIHELIQVMAELSPAAKTGKRKRSQMLFRG

What was measured:
[1] = tested on: IFNγR−/− mice; experiment: MCA-induced tumor formation at the injection site; type: in vivo, mouse
Description: (§1) Initially, tumor formation was examined in groups of 15-20 IFNγR^−/^− mice generated as described in Example 1 and wild type inbred 129/Sv/Ev mice as controls. All animals were greater than 6 weeks old (ranging in age from about 6 to about 12 weeks). The 129/Sv/Ev background was specifically chosen for these experiments since 129/Sv/Ev mice are relatively resistant to the tumorigenic actions of MCA and the pure background of the mice insured that in vivo growth of the resulting tumors could be studied using tumor transplantation approaches. The knockout and control mice were injected subcutaneously in a single dose with 25, 100, or 400 μg of the chemical carcinogen 3-methylcholanthrene (MCA) diluted in peanut oil and monitored for tumor development at the injection site for a period of 130 days. The results are shown in FIG. 1A, which represents the percentage of mice in each group with a tumor over 5 mm as a function of the number of days after injection.
(§2) Groups of IFNγR^−/− mice and STAT1^−/^− mice were generated as described in Examples 1 and 2 and compared to a control group of 129/Sv/Ev wild-type mice. All animals were greater than 6 weeks old (ranging in age from about 6 to about 12 weeks). Each of 20-25 animals per group, were injected subcutaneously with a single dose of MCA at 1.5, 6.25, 25, 100 or 400 μg and monitored for tumor development.

[2] = tested on: wild type 129/Sv/Ev mice; experiment: MCA-induced tumor formation at the injection site; type: in vivo, mouse; conditions: for tumor development: Example 5
Description: as §1, §2

[3] = tested on: perforin-deficient (PKO) mice; conditions: subcutaneous injection; cited from earlier work
[4] = tested on: α chain knockout mice; conditions: mouse, in vivo; cited from earlier work
[5] = tested on: IFNγ-responsive and IFNγ-unresponsive mice; experiment: Histologic comparison of MCA-induced tumors; type: in vivo; conditions: three mouse strains; data not shown
Experimental: Both types of IFNγ insensitive mice developed MCA-induced tumors more frequently than wild-type mice. Tumor formation was detected in IFNγR^−/− mice treated with as little as 6.25 μg MCA.

[6] = tested on: Stat1−/− mice; experiment: MCA-induced tumor formation at the injection site; type: in vivo, mouse
Experimental: as §2

[7] = tested on: p53−/+ mice; conditions: cited from earlier work
[8] = tested on: SK-LC-15; experiment: MHC class I surface expression by flow cytometry; type: cell-based, human; conditions: IFNγ 1000 IRU/ml or IFNαA/D 1000 U/ml, 72 hr, mean channel shift vs untreated cells
Experimental: (§3) To address this question IFNγ responsiveness was examined in a variety of tumor cell lines obtained from human tumor cell banks. Established cell lines were cultured in the presence of either buffer, human IFNγ (1000 IRU/ml), or human IFNαA/D (1000 U/ml) for 72 hr followed by quantitation of MHC class I surface expression by flow cytometry with the antibody W6/32 as previously described (Farrar et al., supra). W6/32 is a murine monoclonal antibody specific for a framework region of human MHC Class I and was kindly provided by Dr. Thalachallour Mohanakumar (Washington University, St. Louis, Mo.). IFNγ-dependent STAT1 activation was assessed by treating cells with either PBS or human IFNγ at 10,000 IRU/ml for 5 minutes at 37° C. followed by subjecting 5 μg of nuclear extract to EMSA using a ^32P-labeled GRR probe as described by Greenlund et al., EMBO J. 13:1591, 1994, which is incorporated herein by reference.
(§4) The experiment was repeated with 17 human adenocarcinoma cell lines and the data are shown in Table I below, with the induction of MHC class I expression represented as the mean channel shift between IFNγ-treated cells and untreated cells. […] The CALU-5 cell line was also insensitive to IFNα. None of the cell lines examined show IFNα-specific unresponsiveness.

[9] = tested on: CALU-5; experiment: MHC class I surface expression by flow cytometry; type: cell-based, human; conditions: for MHC Class I Enhancement (MCS): IFNγ 1000 IRU/ml or IFNαA/D 1000 U/ml, 72 hr, mean channel shift vs untreated cells
Experimental: as §3, §4

[10] = tested on: SK-LC-1; experiment: MHC class I surface expression by flow cytometry; type: cell-based, human; conditions: IFNγ 1000 IRU/ml or IFNαA/D 1000 U/ml, 72 hr, mean channel shift vs untreated cells
Experimental: as §3, §4

[11] = tested on: SK-LC-9; experiment: MHC class I surface expression by flow cytometry; type: cell-based, human; conditions: IFNγ 1000 IRU/ml or IFNαA/D 1000 U/ml, 72 hr, mean channel shift vs untreated cells
Experimental: as §3, §4

[12] = tested on: SK-LC-19; experiment: MHC class I surface expression by flow cytometry; type: cell-based, human; conditions: for MHC Class I Enhancement (MCS): SK-LC-19, IFNγ 1000 IRU/ml or IFNαA/D 1000 U/ml, 72 hr, mean channel shift vs untreated cells
Experimental: as §3, §4

[13] = tested on: SK-LC-7; experiment: MHC class I surface expression by flow cytometry; type: cell-based, human; conditions: for MHC Class I Enhancement (MCS): IFNγ 1000 IRU/ml or IFNαA/D 1000 U/ml, 72 hr, mean channel shift vs untreated cells
Experimental: as §3, §4

[14] = tested on: SK-LC-12; experiment: MHC class I surface expression by flow cytometry; type: cell-based, human; conditions: IFNγ 1000 IRU/ml or IFNαA/D 1000 U/ml, 72 hr, mean channel shift vs untreated cells
Experimental: as §3, §4

[15] = tested on: SK-LC-10; experiment: MHC class I surface expression by flow cytometry; type: cell-based, human; conditions: IFNγ 1000 IRU/ml or IFNαA/D 1000 U/ml, 72 hr, mean channel shift vs untreated cells
Experimental: as §3, §4

[16] = tested on: A549; experiment: MHC class I surface expression by flow cytometry; type: cell-based, human; conditions: IFNγ 1000 IRU/ml or IFNαA/D 1000 U/ml, 72 hr, mean channel shift vs untreated cells
Experimental: as §3, §4

[17] = tested on: SK-LC-11; experiment: MHC class I surface expression by flow cytometry; type: cell-based, human; conditions: IFNγ 1000 IRU/ml or IFNαA/D 1000 U/ml, 72 hr, mean channel shift vs untreated cells
Experimental: as §3, §4

[18] = tested on: SK-LC-2; experiment: MHC class I surface expression by flow cytometry; type: cell-based, human; conditions: for MHC Class I Enhancement (MCS): IFNγ 1000 IRU/ml or IFNαA/D 1000 U/ml, 72 hr, mean channel shift vs untreated cells
Experimental: as §3, §4

[19] = tested on: SK-LC-16; experiment: MHC class I surface expression by flow cytometry; type: cell-based, human; conditions: IFNγ 1000 IRU/ml or IFNαA/D 1000 U/ml, 72 hr, mean channel shift vs untreated cells
Experimental: as §3, §4

[20] = tested on: SK-LU-1; experiment: MHC class I surface expression by flow cytometry; type: cell-based, human; conditions: IFNγ 1000 IRU/ml or IFNαA/D 1000 U/ml, 72 hr, mean channel shift vs untreated cells
Experimental: as §3, §4

[21] = tested on: SK-LC-4; experiment: MHC class I surface expression by flow cytometry; type: cell-based, human; conditions: IFNγ 1000 IRU/ml or IFNαA/D 1000 U/ml, 72 hr, mean channel shift vs untreated cells
Experimental: as §3, §4

[22] = tested on: SK-LC-20; experiment: MHC class I surface expression by flow cytometry; type: cell-based, human; conditions: IFNγ 1000 IRU/ml or IFNαA/D 1000 U/ml, 72 hr, mean channel shift vs untreated cells
Experimental: as §3, §4

[23] = tested on: CALU-3; experiment: MHC class I surface expression by flow cytometry; type: cell-based, human; conditions: IFNγ 1000 IRU/ml or IFNαA/D 1000 U/ml, 72 hr, mean channel shift vs untreated cells
Experimental: as §3, §4

[24] = tested on: A457; experiment: MHC class I surface expression by flow cytometry; type: cell-based, human; conditions: IFNγ 1000 IRU/ml or IFNαA/D 1000 U/ml, 72 hr, mean channel shift vs untreated cells
Experimental: as §3, §4

[25] = tested on: 33 melanoma and 17 lung tumor cell lines classified as non-adenocarcinoma; experiment: Preliminary study of IFNγ sensitivity of tumor cell lines; type: cell-based, human; conditions: of each group (33 melanoma, 17 lung non-adenocarcinoma lines), data not shown
Experimental: as §3

[26] = tested on: RADgR.28.mgR cells; experiment: Antiproliferative or anti-metabolic effects of IFNγ in culture; type: cell-based, mouse; conditions: IFNγ alone or in combination with other cytokines, in vitro; data not shown
Description: Having identified the tumor cell as the major target of IFNγ's actions, experiments were designed to define the mechanism underlying the rejection process. IFNγ can induce an antiproliferative state in certain cell types.

[27] = 400 μg MCA, single s.c. dose, at 130 days

Molecule | tumor induction [7] | MHC Class I Enhancement (MCS) [8] [MCS] | MHC Class I Enhancement (MCS) [9] [MCS] | MHC Class I Enhancement (MCS) [10] [MCS] | MHC Class I Enhancement (MCS) [11] [MCS] | MHC Class I Enhancement (MCS) [12] [MCS] | MHC Class I Enhancement (MCS) [13] [MCS] | MHC Class I Enhancement (MCS) [14] [MCS] | MHC Class I Enhancement (MCS) [15] [MCS] | MHC Class I Enhancement (MCS) [16] [MCS] | MHC Class I Enhancement (MCS) [17] [MCS] | MHC Class I Enhancement (MCS) [18] [MCS] | MHC Class I Enhancement (MCS) [19] [MCS] | MHC Class I Enhancement (MCS) [20] [MCS] | MHC Class I Enhancement (MCS) [21] [MCS] | MHC Class I Enhancement (MCS) [22] [MCS] | MHC Class I Enhancement (MCS) [23] [MCS] | MHC Class I Enhancement (MCS) [24] [MCS] | also measured
Cc1ccc2cc3c(ccc4ccccc43)c3c2c1CC3 [MCA, 3-methylcholanthrene] |  |  |  |  |  |  |  |  |  |  |  |  |  |  |  |  |  |  | mice forming tumors at the lower MCA dose ([1]; 25 μg MCA s.c., Example 4): high percentage; percentage of mice that developed tumors (over 5 mm) [1, 27]: 50%; time at which tumors were detected ([1]; all dose groups (25, 100, 400 μg MCA s.c.)): 90 days; tumor development compared with wild-type mice ([1]; all doses examined (25, 100, 400 μg)): more frequently and at earlier times; lowest MCA dose at which tumor formation was detected ([1]; single s.c. dose, within 130 days, Example 5): 6.25 µg; tumor development ([2]; 25 μg MCA): not; tumor development ([2]; 400 μg MCA): developed tumors; percentage of mice in which tumors were detected (over 5 mm) [2, 27]: 20%; MCA dose at which tumors formed ([2]; single s.c. dose, 130 days, Example 4): ≥ 100 µg; sarcomas at the injection site compared with normal MCA-treated mice [3]: higher frequency and with accelerated onset of tumor; tumors in α chain knockout mice compared with wild-type controls [4]: more tumors; histology of induced tumors [5]: histologically indistinguishable fibrosarcomas; frequency of tumors relative to IFNγR−/− mice ([6]; at every dose examined): approximately two times; lowest MCA dose at which tumors could be detected ([6]; single s.c. dose, within 130 days): 1.6 μg MCA/mouse
COc1ccc(C)cc1N [p-cresidine] | tumors were induced |  |  |  |  |  |  |  |  |  |  |  |  |  |  |  |  |  | 
C1CC2OC2CC1C1CO1 (stereo not drawn) [VCD, 4-vinyl-1-cyclohexene diepoxide] | tumors were induced |  |  |  |  |  |  |  |  |  |  |  |  |  |  |  |  |  | 
IFNα |  | 79.6 | 0.0 | 18.7 | 53.4 | 25.1 | 37.2 | 12.7 | 22.6 | 21.8 | 13.8 | 16.7 | 10.9 | 16.7 | 36.7 | 25.9 | 17.0 | 27.1 | sensitivity to IFNα [9]: insensitive
B1 |  | 91.3 | 0.0 | 16.9 | 49.3 | 0.0 | 0.0 | 30.4 | 31.7 | 36.9 | 25.3 | 0.0 | 27.0 | 47.1 | 59.5 | 25.6 | 30.4 | 27.7 | share of cell lines showing a quantitative reduction in IFNγ sensitivity [25]: approximately 33%; responsiveness to IFNγ (initiation of IFNγ-signaling or IFNγ dependent biologic response) [9]: totally unresponsive; responsiveness to IFNγ (initiation of IFNγ-signaling or IFNγ dependent biologic response) ([12]; SL-LC-19 as printed): totally unresponsive; responsiveness to IFNγ (initiation of IFNγ-signaling or IFNγ dependent biologic response) [13]: totally unresponsive; responsiveness to IFNγ (initiation of IFNγ-signaling or IFNγ dependent biologic response) [18]: totally unresponsive; antiproliferative or anti-metabolic effects [26]: no antiproliferative or anti-metabolic effects

— patent publication US6428969B1, “Method for determining oncogenic activity of a substance” (Ludwig Institute for Cancer Research, priority 1997, dated 2002)
